Reference: patent US9309247B2, “2-substituted imidazo[4,5-D]phenanthroline derivatives and their use in the treatment of cancer” (Aptose Biosciences Inc., priority 2013, dated 2016)

Legend:
[1] = test system: P388D1 (mouse, lymphoma); test: Cell growth inhibition assay, P388D1; format: cell-based; conditions: five days of incubation, XTT; read-out: IC50 P388D1 (ms)
Procedure: (§1) In this study, compounds 1-8 were screened in vitro against a panel of four mouse lymphoma cell lines and two human lymphoma cell line for cell growth inhibition activity. Following treatment, half maximal inhibitory concentrations (IC50) were determined with the objective of selecting the most efficacious compounds for evaluation of in vitro absorption, distribution, metabolism, and excretion (ADME) screening.
(§2) Similarly, human Burkitt's lymphoma Ramos cells (ATCC CRL-1596) were grown in suspension in Roswell Park Memorial Institute (RPMI) 1640 medium supplemented with 10% fetal bovine serum (FBS), 10 mM HEPES KOH pH 7.4, and 2 mM sodium pyruvate. Mouse P388D1 (ATCC CCL-46) and WR19L (ATCC TIB-52) cells were grown in suspension in Dulbecco's Modified Eagle Medium (DMEM) with 10% fetal bovine serum (FBS), 10 mM HEPES, and 2 mM sodium pyruvate. Mouse WEHI231 (ATCC CRL-1702) and EL4 (ATCC TIB-39) cells were grown in suspension in DMEM with 10% fetal bovine serum (FBS), 10 mM HEPES KOH pH 7.4, 2 mM sodium pyruvate, and 0.05 mM β-mercaptoethanol. All cells were maintained at 37° C. in an atmosphere of 5% CO2 in air. Logarithmically growing cells were routinely sub-cultured twice weekly. Briefly, cells were collected by centrifugation, resuspended in pre-warmed media, and diluted 1:10 into a 75 cm^2 flask.
(§3) Cells were subcultured and 4×10^3 cells (in 50 μL) were transferred to each well in a Falcon 96-well tissue culture plate. Exemplary compounds were dissolved in pure dimethyl sulphoxide (DMSO) at a concentration of 10 mM. From this 10 mM stock solution, 12 successive serial dilutions were made in DMSO (2.5 fold dilutions), ranging from 0.52 μM to 10 mM. Using these stock dilutions, 5 μL of each were added to 500 μL of media, and 50 μL of this was added to the cells. The final concentrations being tested ranged from 0.0026 μM to 50 μM. Each concentration was tested in triplicate, and DMSO and untreated cells were also included as controls. After five days of incubation with the compounds, cell viability was determined using the XTT cell proliferation kit (Roche, Cat. No. 11 465 015 001). Following the XTT protocol, 4.5-24 hours after addition of the reagent, the plates were read in a μQuant 96-well plate spectrophotometer (Biotek Instruments Inc.) and the results analyzed to determine the IC50.

[2] = test system: colon carcinoma KM-12 cells; test: Colon carcinoma (KM-12) xenograft model; format: in vivo, CD-1 female nude mice; conditions: vs vehicle-treated control, FIG. 2
Procedure: (§4) The ability of compound 1 to inhibit colon tumour growth in vivo was tested as follows. CD-1 female nude mice (7 mice per treatment group, 6-7 weeks) were injected […] with human colon adenocarcinoma cells HT-29 cells (3×10^6 cells in 0.1 ml PBS). Treatment of the mice with vehicle or 50 mg/kg/d of […] was initiated 5 days post-inoculation (size of tumours=20-40 mm^3) for 7-day cycles of five days followed by a 2 day break for 5 weeks. The size of the tumours was measured over the course of the experiment using calipers, and the weight of the tumours was measured after the animals were sacrificed.
Similar tests were conducted with colon carcinoma KM-12 cells and colon carcinoma SW-620 cells.

[3] = test system: pancreatic cancer (BxPC-3); test: Pancreatic cancer (BxPC-3) xenograft model; format: in vivo, CD-1 female nude mice; conditions: pancreatic carcinoma BxPC-3; vs vehicle-treated control; FIG. 5
Procedure: as §4
(§5) The ability of compound 1 to inhibit renal cell carcinoma growth (see FIG. 4), to inhibit pancreatic carcinoma growth (FIG. 5), to inhibit large-cell lung carcinoma cell growth (FIG. 6), and to inhibit Glioblastoma cell growth (FIG. 7) was also tested following the general procedure as discussed above.

[4] = test system: human renal cancer cells CAKI-1; test: XTT cell proliferation assay, CAKI-1; format: cell-based; conditions: 5 days incubation, read-out: Antiproliferative activity, Kidney CAKI-1
Procedure: Exemplary compounds 1-8 were tested for anti-cancer activity in vitro using human renal cancer cells (ACHN and CAK-1), human pancreatic cells (BXPC3 and SU-86-86), human prostate cancer cell (DU14), human colon carcinoma cells (HT-29 and KM-12), leukemia cells (HL60), brain cancer/tumour cells (SK-A-AS, U87-MG), and human non-small cell lung cancer cells (H460). Compounds 1-8 are the specific embodiments of Formula (I) and Formula (IV) as described above in this application.
The cells were maintained as a monolayer in a growth medium; McCoy's 5A modified medium (Sigma, St. Louis, Mo.), supplemented with 2 mM L-glutamine (Gibco, Grand Island, N.Y.), 10% fetal bovine serum (FBS) (Multicell, WISENT Inc. St-Bruno, QC), antibiotic-antimycotic (Multicell), at 37° C. in a 5% CO2-humidified incubator. Cells were transferred onto 150 mm tissue culture plates and grown until sub-confluency (70-80%) prior to their use. The in vitro antiproliferative activity of compounds was evaluated by incubating the cells with varying concentrations of exemplary compounds as shown in Table 1 for 5 days. The efficacy of these compounds in this cell proliferation assay was measured based in the ability of live cells to reduce the tetrazolium salt XTT to orange colored compounds of formazan (XTT cell proliferation kit IT, Roche Applied Science, Montreal, QC).

[5] = test system: panel of human and mouse lymphoma cell lines; test: Cell growth inhibition, whole lymphoma panel (mean IC50, mean rank); format: cell-based; conditions: mean over six lymphoma cell lines
Procedure: as §1, §3
In vitro potency was assessed using eight exemplary compounds against a panel of human and mouse lymphoma cell lines (Table 4). […] To compare the efficacy of the compounds in cell growth inhibition across the entire panel of cell lines screened, the eight compounds were ranked according to efficacy against each cell line with a numerical value of one indicating most efficacious (lowest IC50 value) and eight being the least efficacious (highest IC50 value).

[6] = test system: human colon adenocarcinoma cells HT-29; test: Colon carcinoma (HT-29) xenograft model; format: in vivo, CD-1 female nude mice; conditions: 50 mg/kg/d, five days on, 2 day break, 5 weeks, vs vehicle-treated control, FIG. 1
Procedure: as §4

[7] = test system: EL4 (mouse, lymphoma); test: Cell growth inhibition assay, EL4; format: cell-based; conditions: five days of incubation, XTT; read-out: IC50 EL4 (ms)
Procedure: as §1, §2, §3

[8] = test system: Human Burkitt's lymphoma Raji cells; test: Cell growth inhibition assay, Raji; format: cell-based; conditions: five days of incubation, XTT; read-out: IC50 Raji (hs)
Procedure: as §1
Human Burkitt's lymphoma Raji cells (ATCC CCL-86) were grown in suspension in Roswell Park Memorial Institute (RPMI) 1640 medium supplemented with 10% fetal bovine serum (FBS), 10 mM HEPES KOH pH 7.4, and 2 mM sodium pyruvate at 37° C. in an atmosphere of 5% CO2 in air. Logarithmically growing cells were routinely sub-cultured twice weekly. Briefly, cells were collected by centrifugation, resuspended in pre-warmed media, and diluted 1:10 into a 75 cm^2 flask.
as §3

[9] = test system: renal cell carcinoma (ACHN); test: Renal cell carcinoma (ACHN) xenograft model; format: in vivo, CD-1 female nude mice; conditions: vs vehicle-treated control, FIG. 4
Procedure: as §4, §5

IC50 [1]: 370 nM
IC50 [4]: 156 nM
IC50 [5]: 209 nM
IC50 [7]: 483 nM
IC50 [8]: 153 nM
SMILES: FC1(F)Oc2ccc(-c3nc4c5cccnc5c5ncccc5c4[nH]3)cc2O1 [Compound 1]
inhibition of tumour growth, as measured by tumour size [2]: able to inhibit tumour growth
inhibition of tumour growth, as measured by tumour size [3]: able to inhibit tumour growth
inhibition of tumour growth, as measured by tumour size [6]: able to inhibit tumour growth
inhibition of tumour growth, as measured by tumour size [9]: able to inhibit tumour growth
